Test results as given in ChEMBL document CHEMBL1153094, “Spectroscopic and biological studies of a novel synthetic chlorin derivative with prospects for use in PDT” (Bioorg Med Chem, 2009).
Active and inactive are the calls of the source. The rule behind the calls is not given here.

Key:
[1] = Cytotoxicity against mouse LLC cells assessed as survival fraction at 0.1 to 1.5 uM after 4 hrs by MTS reduction assay under dark condition; format: cell-based; settings: lewis lung carcinoma
[2] = Cytotoxicity against mouse LLC cells assessed as survival fraction at 0.1 to 1.5 uM after 12 hrs by MTS reduction assay under dark condition; format: cell-based; settings: lewis lung carcinoma
[3] = system: Lewis lung carcinoma cell line; assay: Antiproliferative activity against mouse LLC cells assessed as survival fraction at 0.5 uM after 4 hrs pretreated with 15 J/cm2 red light-irradiation by MTS reduction assay; format: functional
[4] = system: Lewis lung carcinoma cell line; assay: Antiproliferative activity against mouse LLC cells assessed as survival fraction at 0.5 uM dissolved in DMSO after 4 hrs pretreated with 15 J/cm2 red light-irradiation by MTS reduction assay; format: functional
[5] = system: Lewis lung carcinoma cell line; assay: Antiproliferative activity against mouse LLC cells assessed as survival fraction at 0.5 uM dissolved in DMSO after 12 hrs pretreated with 15 J/cm2 red light-irradiation by MTS reduction assay; format: functional
[6] = system: Lewis lung carcinoma cell line; assay: Antiproliferative activity against mouse LLC cells assessed as survival fraction at 0.5 uM in liposomal delivery system after 4 hrs pretreated with 15 J/cm2 red light-irradiation by MTS reduction assay; format: functional
[7] = system: Lewis lung carcinoma cell line; assay: Antiproliferative activity against mouse LLC cells assessed as survival fraction at 0.5 uM in liposomal delivery system after 12 hrs pretreated with 15 J/cm2 red light-irradiation by MTS reduction assay; format: functional
[8] = Cytotoxicity against mouse LLC cells assessed as change in cell morphology at 2 uM after 12 hrs by fluorescence microscopy under dark condition; format: cell-based; settings: lewis lung carcinoma
[9] = system: Lewis lung carcinoma cell line; assay: Antiproliferative activity against mouse LLC cells assessed as F-actin construction damage at 2 uM in liposomal delivery system after 12 hrs pretreated with 15 J/cm2 red light-irradiation by fluorescence microscopy; format: functional, cell-based
[10] = system: Lewis lung carcinoma cell line; assay: Antiproliferative activity against mouse LLC cells assessed as nuclear damage at 2 uM in liposomal delivery system after 12 hrs pretreated with 15 J/cm2 red light-irradiation by fluorescence microscopy; format: functional, cell-based
[11] = system: Lewis lung carcinoma cell line; assay: Antiproliferative activity against mouse LLC cells assessed as DNA […] at 2 uM in liposomal delivery system after 12 hrs pretreated with 15 J/cm2 red light-irradiation by fluorescence microscopy; format: functional, cell-based
[12] = system: Lewis lung carcinoma cell line; assay: Antiproliferative activity against mouse LLC cells assessed as survival fraction at 5 uM after 24 hrs pretreated with 15 J/cm2 red light-irradiation by MTS reduction assay; format: functional

With CCCCCCCC1c2cc3[nH]c(cc4nc(cc5[nH]c(cc(n2)[C@]1(C)CC(=O)N(C)C)c(C)c5CCC(=O)O)C(CCC(=O)O)=C4C)cc3C (mixture of isomers) the Activity [1] was “Non-toxic”, the Activity [2] was “Non-toxic” and the Activity [3] was 22.3%. For the same compound, the Activity [4] was 70.6%, the Activity [5] was 74.4% and the Activity [6] was 20.3%. For the same compound, the Activity [7] was 34.8%, the Activity [8] was “Toxic” and the Activity [9] was “Active”. For the same compound, the Activity [10] was “Active” and the Activity [11] was “Active”.

With C=CC1=C(C)c2cc3[nH]c(cc4nc(cc5[nH]c(cc1n2)c(C)c5CCC(=O)[O-])C(CCC(=O)[O-])=C4C)c(C)c3C=C.[Na+].[Na+] [PROTOPORPHYRIN DISODIUM] the Activity [12] was 60.7%.
